Test results from ChEMBL document CHEMBL5465560, “Selectivity Literature for EUbOPEN Chemogenomic Library” (2024).

Assays:
[1] = molecular target: Tyrosine-protein kinase HCK (Homo sapiens) (UniProt P08631); assay: Selectivity interaction (KinaseProfiler screening (Millipore)) EUB0000601a HCK; settings: at 3 µM
[2] = molecular target: T1, Alpha-2A adrenergic receptor (Homo sapiens) (UniProt P08913); assay: Selectivity interaction (Eurofins CEREP Diversity Profile (receptors and ion channels)) EUB0000279b ADRA2A; settings: at 10 µM
T1 sequence (whole entry): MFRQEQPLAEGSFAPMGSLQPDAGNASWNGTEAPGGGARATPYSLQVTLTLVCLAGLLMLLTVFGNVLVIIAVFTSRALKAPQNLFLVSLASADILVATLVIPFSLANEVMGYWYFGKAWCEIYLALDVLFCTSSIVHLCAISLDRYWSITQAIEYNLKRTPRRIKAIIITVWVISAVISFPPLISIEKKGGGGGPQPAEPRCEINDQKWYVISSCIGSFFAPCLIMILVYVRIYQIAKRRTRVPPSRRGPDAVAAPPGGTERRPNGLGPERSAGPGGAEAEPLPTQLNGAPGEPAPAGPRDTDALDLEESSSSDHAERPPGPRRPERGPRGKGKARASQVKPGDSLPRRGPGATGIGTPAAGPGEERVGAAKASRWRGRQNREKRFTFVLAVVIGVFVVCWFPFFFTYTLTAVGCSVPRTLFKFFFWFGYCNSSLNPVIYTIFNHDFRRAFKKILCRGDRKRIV

[3] = molecular target: T2, Serine/threonine-protein kinase TNNI3K (Homo sapiens) (UniProt Q59H18); assay: Selectivity interaction (KinomeScan (DiscoverX)) EUB0001619a TNNI3K; settings: at 1 µM
T2 sequence (whole entry): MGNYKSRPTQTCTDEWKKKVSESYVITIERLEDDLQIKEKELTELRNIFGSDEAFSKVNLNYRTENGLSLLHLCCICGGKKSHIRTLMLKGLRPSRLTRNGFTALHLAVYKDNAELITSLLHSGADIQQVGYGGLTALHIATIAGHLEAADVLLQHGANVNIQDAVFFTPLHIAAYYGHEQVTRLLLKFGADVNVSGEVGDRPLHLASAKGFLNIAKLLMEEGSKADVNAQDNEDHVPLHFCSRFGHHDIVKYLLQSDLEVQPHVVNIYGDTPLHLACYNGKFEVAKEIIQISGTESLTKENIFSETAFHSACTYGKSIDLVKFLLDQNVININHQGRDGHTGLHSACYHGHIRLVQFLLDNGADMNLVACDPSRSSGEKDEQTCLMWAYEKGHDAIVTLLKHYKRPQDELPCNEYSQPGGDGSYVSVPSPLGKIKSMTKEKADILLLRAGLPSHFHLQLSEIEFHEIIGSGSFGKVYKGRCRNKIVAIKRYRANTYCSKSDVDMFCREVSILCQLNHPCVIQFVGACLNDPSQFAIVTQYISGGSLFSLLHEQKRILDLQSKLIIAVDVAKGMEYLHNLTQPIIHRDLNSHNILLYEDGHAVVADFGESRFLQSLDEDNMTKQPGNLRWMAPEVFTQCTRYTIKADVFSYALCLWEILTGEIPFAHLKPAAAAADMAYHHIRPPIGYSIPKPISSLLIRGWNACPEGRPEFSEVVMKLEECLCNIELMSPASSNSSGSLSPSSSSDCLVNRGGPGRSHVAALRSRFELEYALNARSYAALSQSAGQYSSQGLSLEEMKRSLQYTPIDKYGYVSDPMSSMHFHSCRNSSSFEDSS

[4] = molecular target: T3, Mitogen-activated protein kinase kinase kinase 3 (Homo sapiens) (UniProt Q99759); assay: Selectivity interaction (ActivX KiNativ screen (kinase selectivity in THP-1 cell lysates)) EUB0000639a MAP3K3; type: subcellular; settings: lysate
T3 sequence (whole entry): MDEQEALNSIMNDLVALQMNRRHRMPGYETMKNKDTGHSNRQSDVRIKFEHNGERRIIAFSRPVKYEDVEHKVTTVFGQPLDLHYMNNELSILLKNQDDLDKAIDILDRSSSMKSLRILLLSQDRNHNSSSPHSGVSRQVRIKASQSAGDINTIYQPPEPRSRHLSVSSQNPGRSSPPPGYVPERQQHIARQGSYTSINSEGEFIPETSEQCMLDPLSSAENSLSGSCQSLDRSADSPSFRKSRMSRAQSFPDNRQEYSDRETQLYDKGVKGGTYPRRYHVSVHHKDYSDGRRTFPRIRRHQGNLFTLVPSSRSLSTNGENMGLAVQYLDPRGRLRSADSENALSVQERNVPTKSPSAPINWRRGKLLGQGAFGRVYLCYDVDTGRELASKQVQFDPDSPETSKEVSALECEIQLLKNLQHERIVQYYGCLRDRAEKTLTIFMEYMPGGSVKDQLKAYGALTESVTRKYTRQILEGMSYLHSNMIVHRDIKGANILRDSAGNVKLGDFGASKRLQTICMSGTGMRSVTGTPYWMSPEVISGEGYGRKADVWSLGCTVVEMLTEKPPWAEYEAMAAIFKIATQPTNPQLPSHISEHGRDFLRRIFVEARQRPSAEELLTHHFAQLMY

[5] = molecular target: T4, Testis-specific serine/threonine-protein kinase 3 (Homo sapiens) (UniProt Q96PN8); assay: Selectivity interaction (KinomeScan (DiscoverX)) EUB0000229b TSSK3; settings: at 10 µM
T4 sequence (whole entry): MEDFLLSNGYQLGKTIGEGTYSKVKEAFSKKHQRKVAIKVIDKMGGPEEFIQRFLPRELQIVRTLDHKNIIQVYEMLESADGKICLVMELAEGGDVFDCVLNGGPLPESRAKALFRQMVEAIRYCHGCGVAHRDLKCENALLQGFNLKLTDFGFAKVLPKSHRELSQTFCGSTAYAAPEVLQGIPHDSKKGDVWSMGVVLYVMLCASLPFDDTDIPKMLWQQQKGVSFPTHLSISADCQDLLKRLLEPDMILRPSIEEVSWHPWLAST

[6] = molecular target: MAP kinase-activated protein kinase 2 (Homo sapiens, UniProt P49137); assay: Selectivity interaction (KinomeScan (DiscoverX)) EUB0000666a MAPKAPK2; settings: at 10 µM
[7] = molecular target: Vascular endothelial growth factor receptor 3 (Homo sapiens, UniProt P35916); assay: Selectivity interaction (KinomeScan (DiscoverX)) EUB0000092b FLT4; settings: at 10 µM
[8] = molecular target: Serine/threonine-protein kinase 26 (Homo sapiens, UniProt Q9P289); assay: Selectivity interaction (KinomeScan (DiscoverX)) EUB0000695a STK26; settings: at 100 nM
Chain of Serine/threonine-protein kinase 26 (Q9P289 2-416 limits assumed): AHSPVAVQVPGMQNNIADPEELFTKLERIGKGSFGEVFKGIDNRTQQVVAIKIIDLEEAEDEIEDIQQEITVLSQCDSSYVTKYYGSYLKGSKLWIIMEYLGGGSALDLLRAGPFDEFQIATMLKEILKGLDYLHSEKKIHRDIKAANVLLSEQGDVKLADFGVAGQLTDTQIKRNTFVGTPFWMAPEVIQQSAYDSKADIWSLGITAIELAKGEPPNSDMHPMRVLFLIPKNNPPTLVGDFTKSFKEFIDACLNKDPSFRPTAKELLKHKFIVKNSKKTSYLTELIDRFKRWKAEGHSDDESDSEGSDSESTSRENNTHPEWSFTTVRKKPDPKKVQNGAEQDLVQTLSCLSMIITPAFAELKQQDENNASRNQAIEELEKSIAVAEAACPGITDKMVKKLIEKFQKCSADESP

Chain of Tyrosine-protein kinase HCK (Homo sapiens) (P08631 2-526 limits assumed): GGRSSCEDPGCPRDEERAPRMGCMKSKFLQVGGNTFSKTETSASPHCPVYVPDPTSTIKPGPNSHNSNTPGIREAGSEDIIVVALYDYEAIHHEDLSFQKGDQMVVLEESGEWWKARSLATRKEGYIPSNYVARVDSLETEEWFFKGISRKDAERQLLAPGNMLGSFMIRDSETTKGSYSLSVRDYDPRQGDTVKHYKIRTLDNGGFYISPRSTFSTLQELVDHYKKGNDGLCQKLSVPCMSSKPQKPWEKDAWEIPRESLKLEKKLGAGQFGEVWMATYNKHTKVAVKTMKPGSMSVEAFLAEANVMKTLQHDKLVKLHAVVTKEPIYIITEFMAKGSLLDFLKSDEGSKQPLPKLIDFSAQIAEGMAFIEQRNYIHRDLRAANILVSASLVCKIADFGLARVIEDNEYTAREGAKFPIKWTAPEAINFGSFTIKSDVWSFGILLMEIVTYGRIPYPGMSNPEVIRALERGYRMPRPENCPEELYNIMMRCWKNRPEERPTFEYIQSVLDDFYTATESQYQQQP
Chain of Vascular endothelial growth factor receptor 3 (P35916 whole entry): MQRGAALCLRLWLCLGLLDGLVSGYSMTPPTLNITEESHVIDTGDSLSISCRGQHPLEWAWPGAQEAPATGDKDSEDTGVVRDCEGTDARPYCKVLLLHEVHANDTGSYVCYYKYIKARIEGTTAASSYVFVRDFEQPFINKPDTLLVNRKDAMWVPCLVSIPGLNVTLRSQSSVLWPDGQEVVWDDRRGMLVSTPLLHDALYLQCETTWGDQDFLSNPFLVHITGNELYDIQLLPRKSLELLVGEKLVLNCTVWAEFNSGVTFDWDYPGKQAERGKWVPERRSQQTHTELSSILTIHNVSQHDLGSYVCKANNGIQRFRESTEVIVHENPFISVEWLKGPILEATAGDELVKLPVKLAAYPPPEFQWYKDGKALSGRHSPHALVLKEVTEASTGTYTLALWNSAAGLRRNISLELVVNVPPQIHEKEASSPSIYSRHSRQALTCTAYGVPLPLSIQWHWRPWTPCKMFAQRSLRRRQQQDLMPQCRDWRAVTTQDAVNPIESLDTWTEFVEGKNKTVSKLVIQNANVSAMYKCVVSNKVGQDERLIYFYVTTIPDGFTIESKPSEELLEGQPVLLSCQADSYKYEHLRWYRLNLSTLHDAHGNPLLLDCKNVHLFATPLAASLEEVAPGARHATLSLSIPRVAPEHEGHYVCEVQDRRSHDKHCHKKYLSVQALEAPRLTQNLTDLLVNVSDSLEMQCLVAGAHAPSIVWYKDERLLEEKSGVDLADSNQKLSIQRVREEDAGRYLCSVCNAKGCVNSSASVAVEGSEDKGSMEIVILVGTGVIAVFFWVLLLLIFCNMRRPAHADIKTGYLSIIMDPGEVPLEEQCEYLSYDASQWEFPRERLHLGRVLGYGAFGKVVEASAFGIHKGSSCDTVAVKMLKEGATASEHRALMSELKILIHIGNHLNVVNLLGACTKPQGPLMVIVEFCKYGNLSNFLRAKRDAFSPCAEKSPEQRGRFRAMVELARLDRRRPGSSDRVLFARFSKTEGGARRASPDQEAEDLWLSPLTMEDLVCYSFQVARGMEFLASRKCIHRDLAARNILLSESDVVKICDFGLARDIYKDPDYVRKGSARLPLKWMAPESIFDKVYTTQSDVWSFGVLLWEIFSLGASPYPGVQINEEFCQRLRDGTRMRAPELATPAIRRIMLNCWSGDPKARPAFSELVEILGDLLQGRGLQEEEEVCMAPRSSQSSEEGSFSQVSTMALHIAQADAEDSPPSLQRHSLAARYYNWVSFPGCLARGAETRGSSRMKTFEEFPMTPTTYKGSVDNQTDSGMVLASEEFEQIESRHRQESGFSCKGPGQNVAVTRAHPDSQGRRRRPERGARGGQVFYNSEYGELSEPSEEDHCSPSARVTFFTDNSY
Chain of MAP kinase-activated protein kinase 2 (P49137 whole entry, looked up): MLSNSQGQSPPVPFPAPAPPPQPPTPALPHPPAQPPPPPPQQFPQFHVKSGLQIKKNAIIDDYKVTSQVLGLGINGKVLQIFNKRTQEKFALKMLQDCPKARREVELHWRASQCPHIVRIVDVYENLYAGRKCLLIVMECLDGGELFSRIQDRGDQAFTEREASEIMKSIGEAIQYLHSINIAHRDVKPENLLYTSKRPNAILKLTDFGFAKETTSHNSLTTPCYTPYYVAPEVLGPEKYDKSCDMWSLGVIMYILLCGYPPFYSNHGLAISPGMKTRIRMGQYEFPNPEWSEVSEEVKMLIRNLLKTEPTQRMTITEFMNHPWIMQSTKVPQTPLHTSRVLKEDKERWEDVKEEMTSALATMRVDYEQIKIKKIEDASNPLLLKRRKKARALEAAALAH

## CCc1cc(Nc2nccc(-c3c(-c4ccc(OC)c(C(=O)Nc5c(F)cccc5F)c4)nc4ccccn34)n2)c(OC)cc1N1CCC(N2CCN(S(C)(=O)=O)CC2)CC1
[1]
  % of inhibition: 81%

## CC(=O)c1cc(-c2ccccc2OCC2CC2)c2ncccn12
[2]
  % of control: 100%

## N#Cc1cccc(-c2c[nH]c3ncnc(N4CCOCC4)c23)c1
[3]
  % of control: 74%

## CC[C@@H]1[C@H](F)C(=O)N[C@@H]1COc1nccc2cc(C(N)=O)c(OC)cc12 [ZIMLOVISERTIB]
[4]; at 0.01 µM
  % of inhibition: 8.7%
[4]; at 0.04 µM
  % of inhibition: 1.8%
[4]; at 0.2 µM
  % of inhibition: -1.4%
[4]; at 1 µM
  % of inhibition: -7.6%
[4]; at 5 µM
  % of inhibition: 12.6%

## COc1cc(N(C)c2ccnc3ccc(C(F)(F)F)cc23)cc(OC)c1OC
[5]
  % binding: 81%

## O=C(NOC[C@H](O)CO)c1ccc(F)c(F)c1Nc1ccc(I)cc1F
[6]
  % of control: 84%

## CCC(=O)N1CCN(c2ccc(-n3c(=O)ccc4cnc5ccc(-c6cnc7ccccc7c6)cc5c43)cc2C(F)(F)F)CC1
[7]
  % of control: 74%

## Cc1cc(F)c(C(=O)Nc2cccc(-c3nncn3C(C)C)n2)cc1-n1cnc(C2CC2)c1
[8]
  % of control: 100%
